Experimental data as given in the NIST ThermoML archive (doi:10.1021/je900909s).
“And” between values parts separate entries of the source, which are not always exact repeats. Equal values may be shown once. ± gives the expanded uncertainty stated by the source.

Experiment: cn = amount concentration of the nth substance listed, in mol/dm3
Details: 101 kPa, Liquid, c1 = 2; for speed of sound: Frequency=4 MHz, Linear variable-path acoustic interferometer

[Cl-].[Na+] [sodium chloride] + O
speed of sound (298.15 K): 1614.3 ± 2.1 m/s
mass density (298.15 K): 1075 ± 1.4 kg/m3
speed of sound (303.15 K): 1620.9 ± 2.1 m/s
mass density (303.15 K): 1073 ± 1.5 kg/m3
speed of sound (308.15 K): 1627.6 ± 2.1 m/s
mass density (308.15 K): 1070.7 ± 1.5 kg/m3
speed of sound (313.15 K): 1633.7 ± 2.1 m/s
mass density (313.15 K): 1068.3 ± 1.6 kg/m3
speed of sound (318.15 K): 1637.3 ± 2.1 m/s
mass density (318.15 K): 1065.7 ± 1.7 kg/m3
speed of sound (323.15 K): 1640.5 ± 2.2 m/s
mass density (323.15 K): 1063.1 ± 1.7 kg/m3
speed of sound (328.15 K): 1643.7 ± 2.2 m/s and 1642.7 ± 2.2 m/s
mass density (328.15 K): 1060.2 ± 1.8 kg/m3

O=[N+]([O-])[O-].[Na+] [sodium nitrate] + O
speed of sound (298.15 K): 1581.4 ± 2.1 m/s
mass density (298.15 K): 1104.2 ± 1.5 kg/m3
speed of sound (303.15 K): 1588.6 ± 2.1 m/s
mass density (303.15 K): 1101.7 ± 1.5 kg/m3
speed of sound (308.15 K): 1593.2 ± 2.1 m/s
mass density (308.15 K): 1099 ± 1.6 kg/m3
speed of sound (313.15 K): 1596.3 ± 2.1 m/s
mass density (313.15 K): 1096.3 ± 1.7 kg/m3
speed of sound (318.15 K): 1600.1 ± 2.1 m/s
mass density (318.15 K): 1093.4 ± 1.7 kg/m3
speed of sound (323.15 K): 1604.3 ± 2.1 m/s
mass density (323.15 K): 1090.4 ± 1.8 kg/m3
speed of sound (328.15 K): 1607.1 ± 2.1 m/s
mass density (328.15 K): 1087.2 ± 1.8 kg/m3
